Results from US4745177A, “Desulfatohirudins, the preparation thereof and pharmaceutical compositions containing them” (Ciba-Geigy Corporation, priority 1983, dated 1988).

Assays:
[1] = unusually high doses given to dogs; cited from earlier work
[2] = molecular target: T1, thrombin (Homo sapiens, UniProt P00734); conditions: thrombin inhibitor; cited from earlier work
[3] = molecular target: T1, thrombin; assay: inhibition of thrombin with chromogenic substrate Chromozym TH; format: biochemical; conditions: starting material of Example 1
Protocol: The biological activity is determined from the inhibition of thrombin, whose enzymatic activity is in turn determined using the chromogenic substrate Chromozym TH (a product of Boehringer, Mannheim, West Germany, for thrombin and hirudin determination) in accordance with known directions supplied with the test preparation.

[4] = system: experimental thrombosis (stasis or thrombin injection), endotoxin shock, DIC; conditions: cited from earlier work
[5] = system: other proteinases of the clotting cascade; conditions: completely specific for thrombin; cited from earlier work

In the case of Hirudin, the “effect on heart rate, respiration, blood pressure, thrombocytes, fibrinogen and haemoglobin” value [1] is listed as “No effect”, the Ki [2] is listed as ~0.06 nM and the “activity (inhibition of thrombin)” value [3] is listed as 630 IU/mg. The “efficacy in experimental thrombosis, endotoxin shock and DIC” value ([4]; rats, pigs, dogs, thrombosis induced by stasis or thrombin injection) was “proved effective”, the “direct comparison with heparin” value ([4]; whenever direct comparison tests were carried out) was “superior to heparin” and the “inhibition of other proteinases of the clotting cascade” value [5] was “does not inhibit”.
